The target of assay [1] is T1, Alpha-1A adrenergic receptor (Homo sapiens, UniProt P35348).
T1 sequence (P35348 whole entry): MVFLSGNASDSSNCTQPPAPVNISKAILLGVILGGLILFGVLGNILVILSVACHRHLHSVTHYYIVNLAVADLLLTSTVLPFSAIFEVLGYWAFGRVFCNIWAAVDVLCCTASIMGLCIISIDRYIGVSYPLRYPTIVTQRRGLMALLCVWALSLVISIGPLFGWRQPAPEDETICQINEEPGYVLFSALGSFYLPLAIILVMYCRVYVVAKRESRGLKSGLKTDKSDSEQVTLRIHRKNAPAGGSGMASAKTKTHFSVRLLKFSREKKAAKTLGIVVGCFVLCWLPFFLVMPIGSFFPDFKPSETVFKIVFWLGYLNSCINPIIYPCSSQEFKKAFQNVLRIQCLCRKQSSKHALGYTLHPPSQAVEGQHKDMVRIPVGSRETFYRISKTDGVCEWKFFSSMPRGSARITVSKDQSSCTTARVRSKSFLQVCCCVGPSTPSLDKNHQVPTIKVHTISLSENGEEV
In kind it is functional, cell-based.

Assay [2] concerns the target T2, Amine oxidase [flavin-containing] A (Homo sapiens, UniProt P21397).
T2 sequence (P21397 whole entry): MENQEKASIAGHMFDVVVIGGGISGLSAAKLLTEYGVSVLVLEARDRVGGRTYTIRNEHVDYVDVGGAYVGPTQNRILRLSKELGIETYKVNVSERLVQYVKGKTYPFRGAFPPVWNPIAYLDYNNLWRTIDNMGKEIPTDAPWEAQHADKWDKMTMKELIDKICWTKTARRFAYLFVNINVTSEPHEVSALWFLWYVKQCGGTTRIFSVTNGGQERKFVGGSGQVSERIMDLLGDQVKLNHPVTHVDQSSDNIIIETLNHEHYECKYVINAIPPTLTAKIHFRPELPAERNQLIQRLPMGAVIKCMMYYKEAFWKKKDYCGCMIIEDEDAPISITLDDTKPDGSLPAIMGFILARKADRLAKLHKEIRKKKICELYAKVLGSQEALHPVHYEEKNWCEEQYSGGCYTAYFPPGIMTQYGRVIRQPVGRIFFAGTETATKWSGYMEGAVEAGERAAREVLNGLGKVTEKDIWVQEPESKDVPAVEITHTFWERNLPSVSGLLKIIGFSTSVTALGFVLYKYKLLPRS
The format is functional.

The target in assay [3] is T1, Alpha-1A adrenergic receptor. The format is functional, cell-based. This is another data set of the same source.
The next assay addresses Acetylcholinesterase (Homo sapiens, UniProt P22303). The format is functional.
In assay [4] the target is T3, Muscarinic acetylcholine receptor M1 (Homo sapiens, UniProt P11229).
T3 sequence (P11229 whole entry): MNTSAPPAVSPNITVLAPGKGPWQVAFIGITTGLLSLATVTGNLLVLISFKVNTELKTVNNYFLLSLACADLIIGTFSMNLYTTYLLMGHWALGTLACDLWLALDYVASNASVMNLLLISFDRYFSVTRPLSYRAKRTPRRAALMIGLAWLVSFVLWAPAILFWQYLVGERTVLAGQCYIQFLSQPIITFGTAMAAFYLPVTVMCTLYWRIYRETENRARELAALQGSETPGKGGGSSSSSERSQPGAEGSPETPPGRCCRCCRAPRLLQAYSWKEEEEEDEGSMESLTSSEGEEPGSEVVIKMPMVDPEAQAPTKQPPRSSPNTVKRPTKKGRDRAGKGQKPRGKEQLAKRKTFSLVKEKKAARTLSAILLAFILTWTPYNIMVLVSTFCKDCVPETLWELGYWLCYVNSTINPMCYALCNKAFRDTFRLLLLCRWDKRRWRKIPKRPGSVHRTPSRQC
In kind it is functional, cell-based.

For assay [5], the target named is Prostaglandin G/H synthase 1 (Homo sapiens, UniProt P23219). In kind it is functional.
Prostaglandin G/H synthase 1, sequence (P23219 whole entry): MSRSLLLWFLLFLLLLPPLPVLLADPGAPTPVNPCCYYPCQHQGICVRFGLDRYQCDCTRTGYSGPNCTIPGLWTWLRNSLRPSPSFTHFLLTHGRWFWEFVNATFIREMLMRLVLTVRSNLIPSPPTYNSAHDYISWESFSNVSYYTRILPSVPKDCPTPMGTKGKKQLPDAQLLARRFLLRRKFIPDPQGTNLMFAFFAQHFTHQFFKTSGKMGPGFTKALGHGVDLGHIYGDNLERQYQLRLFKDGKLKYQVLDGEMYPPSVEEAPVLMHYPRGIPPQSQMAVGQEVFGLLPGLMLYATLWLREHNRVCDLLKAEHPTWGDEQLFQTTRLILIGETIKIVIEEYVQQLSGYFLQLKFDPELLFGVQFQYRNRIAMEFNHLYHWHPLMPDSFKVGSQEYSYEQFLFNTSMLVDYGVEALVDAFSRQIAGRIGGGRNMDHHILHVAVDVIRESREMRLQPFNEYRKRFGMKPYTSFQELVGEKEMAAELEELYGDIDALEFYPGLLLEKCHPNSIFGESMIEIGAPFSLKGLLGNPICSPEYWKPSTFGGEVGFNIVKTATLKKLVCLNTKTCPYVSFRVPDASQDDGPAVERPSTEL
Another assay deals with T4, Thromboxane A2 receptor (Homo sapiens, UniProt P21731).
T4 sequence (P21731 whole entry): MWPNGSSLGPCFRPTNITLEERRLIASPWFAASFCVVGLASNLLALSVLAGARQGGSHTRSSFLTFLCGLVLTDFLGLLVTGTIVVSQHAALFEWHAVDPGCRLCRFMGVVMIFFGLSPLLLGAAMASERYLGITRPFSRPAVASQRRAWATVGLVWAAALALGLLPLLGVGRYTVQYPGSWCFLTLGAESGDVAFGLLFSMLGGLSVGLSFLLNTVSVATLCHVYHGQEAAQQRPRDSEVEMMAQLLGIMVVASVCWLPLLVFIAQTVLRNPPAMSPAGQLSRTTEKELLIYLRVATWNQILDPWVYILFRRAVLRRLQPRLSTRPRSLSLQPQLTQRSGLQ

A further assay has as its target Mu-type opioid receptor (Homo sapiens, UniProt P35372).
In a further assay the target is Histamine H2 receptor (Homo sapiens, UniProt P25021). In kind it is functional, cell-based.
Histamine H2 receptor, sequence (P25021 whole entry): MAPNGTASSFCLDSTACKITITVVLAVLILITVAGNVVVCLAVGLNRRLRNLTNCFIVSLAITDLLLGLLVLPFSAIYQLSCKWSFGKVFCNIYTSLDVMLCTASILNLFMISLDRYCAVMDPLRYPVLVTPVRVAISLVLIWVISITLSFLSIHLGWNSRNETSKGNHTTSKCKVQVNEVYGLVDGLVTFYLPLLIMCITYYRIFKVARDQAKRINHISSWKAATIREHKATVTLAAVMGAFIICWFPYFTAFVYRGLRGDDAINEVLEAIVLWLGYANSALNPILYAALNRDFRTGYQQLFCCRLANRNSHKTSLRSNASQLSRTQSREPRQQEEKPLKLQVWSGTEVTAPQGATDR
Assay [6] addresses Gamma-aminobutyric acid receptor subunit alpha-1 (Rattus norvegicus, UniProt P62813).
Assay [7] concerns the target T1, Alpha-1A adrenergic receptor. In kind it is functional, cell-based. This is another data set of the same source.
In a further assay the target is Histamine H3 receptor (Homo sapiens, UniProt Q9Y5N1).
Histamine H3 receptor, sequence (Q9Y5N1 whole entry): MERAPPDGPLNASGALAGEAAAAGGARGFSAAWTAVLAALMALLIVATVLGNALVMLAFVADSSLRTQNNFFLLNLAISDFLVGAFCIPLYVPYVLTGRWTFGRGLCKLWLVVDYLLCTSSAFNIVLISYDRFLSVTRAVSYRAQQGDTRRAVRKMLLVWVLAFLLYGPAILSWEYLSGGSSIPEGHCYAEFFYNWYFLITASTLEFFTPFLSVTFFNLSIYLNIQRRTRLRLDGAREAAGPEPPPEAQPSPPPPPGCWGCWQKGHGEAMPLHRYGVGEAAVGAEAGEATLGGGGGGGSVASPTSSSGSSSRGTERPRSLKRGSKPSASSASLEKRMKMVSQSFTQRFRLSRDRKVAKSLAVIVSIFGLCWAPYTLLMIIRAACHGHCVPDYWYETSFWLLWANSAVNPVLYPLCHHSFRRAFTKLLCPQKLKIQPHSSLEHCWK
For assay [8], the target named is T5, 5-hydroxytryptamine receptor 1A (Homo sapiens, UniProt P08908).
T5 sequence (P08908 whole entry): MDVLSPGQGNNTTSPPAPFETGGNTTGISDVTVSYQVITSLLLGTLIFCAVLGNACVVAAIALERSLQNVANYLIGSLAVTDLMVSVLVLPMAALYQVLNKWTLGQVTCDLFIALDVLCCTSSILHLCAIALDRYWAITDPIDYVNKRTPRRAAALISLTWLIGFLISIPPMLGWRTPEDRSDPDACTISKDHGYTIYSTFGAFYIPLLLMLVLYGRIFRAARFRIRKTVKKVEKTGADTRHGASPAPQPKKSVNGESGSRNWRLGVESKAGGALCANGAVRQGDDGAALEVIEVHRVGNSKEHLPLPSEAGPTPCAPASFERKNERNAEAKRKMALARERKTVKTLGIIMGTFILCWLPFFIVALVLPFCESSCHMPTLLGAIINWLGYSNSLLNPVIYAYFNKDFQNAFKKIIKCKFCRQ
The format is functional, cell-based.

Assay [9] has as its target T3, Muscarinic acetylcholine receptor M1. The format is functional.
For assay [10], the target named is 5-hydroxytryptamine receptor 2A (Homo sapiens, UniProt P28223). In kind it is functional, cell-based.
5-hydroxytryptamine receptor 2A, sequence (P28223 whole entry): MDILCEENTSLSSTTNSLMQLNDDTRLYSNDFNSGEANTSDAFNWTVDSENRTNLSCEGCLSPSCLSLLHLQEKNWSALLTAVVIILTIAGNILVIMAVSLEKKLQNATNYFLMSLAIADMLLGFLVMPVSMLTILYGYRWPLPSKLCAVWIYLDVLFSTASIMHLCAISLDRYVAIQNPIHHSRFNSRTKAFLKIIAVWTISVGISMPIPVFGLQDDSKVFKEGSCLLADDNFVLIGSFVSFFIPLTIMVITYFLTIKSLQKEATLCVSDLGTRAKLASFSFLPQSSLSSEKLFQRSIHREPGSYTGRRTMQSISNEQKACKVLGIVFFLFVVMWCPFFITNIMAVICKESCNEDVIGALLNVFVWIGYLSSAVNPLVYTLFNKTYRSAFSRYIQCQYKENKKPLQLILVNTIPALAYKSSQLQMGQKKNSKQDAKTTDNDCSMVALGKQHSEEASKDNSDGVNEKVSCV

The structures appear in SMILES notation.
Note: assay procedure not described here.

Mu-type opioid receptor, sequence (P35372 whole entry): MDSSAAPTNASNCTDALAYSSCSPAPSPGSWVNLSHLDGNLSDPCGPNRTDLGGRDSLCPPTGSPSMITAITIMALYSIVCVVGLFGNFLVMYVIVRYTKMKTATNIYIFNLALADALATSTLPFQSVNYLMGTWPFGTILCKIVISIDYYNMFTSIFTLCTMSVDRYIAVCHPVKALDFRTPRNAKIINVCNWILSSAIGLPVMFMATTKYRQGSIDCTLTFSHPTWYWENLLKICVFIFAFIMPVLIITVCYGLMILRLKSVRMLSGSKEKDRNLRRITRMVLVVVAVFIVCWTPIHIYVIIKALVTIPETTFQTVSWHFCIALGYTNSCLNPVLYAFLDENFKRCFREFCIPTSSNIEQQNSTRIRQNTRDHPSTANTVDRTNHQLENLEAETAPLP
Acetylcholinesterase, sequence (P22303 whole entry): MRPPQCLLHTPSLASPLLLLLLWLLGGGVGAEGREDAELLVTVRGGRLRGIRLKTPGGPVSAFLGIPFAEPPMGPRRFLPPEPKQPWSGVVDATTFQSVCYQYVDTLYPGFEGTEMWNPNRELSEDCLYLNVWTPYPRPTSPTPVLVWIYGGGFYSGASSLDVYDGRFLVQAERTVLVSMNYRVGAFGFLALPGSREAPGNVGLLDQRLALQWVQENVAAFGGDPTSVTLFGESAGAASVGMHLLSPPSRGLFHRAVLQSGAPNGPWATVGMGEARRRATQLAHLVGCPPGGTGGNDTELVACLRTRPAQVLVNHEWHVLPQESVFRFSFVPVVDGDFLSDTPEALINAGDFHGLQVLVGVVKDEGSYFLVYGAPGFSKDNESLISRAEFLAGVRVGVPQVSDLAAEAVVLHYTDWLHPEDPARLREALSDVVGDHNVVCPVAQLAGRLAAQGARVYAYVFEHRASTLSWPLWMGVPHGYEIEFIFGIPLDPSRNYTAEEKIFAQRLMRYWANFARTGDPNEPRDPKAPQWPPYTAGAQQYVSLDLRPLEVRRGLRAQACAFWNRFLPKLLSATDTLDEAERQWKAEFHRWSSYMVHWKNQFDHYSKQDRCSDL
Gamma-aminobutyric acid receptor subunit alpha-1, sequence (P62813 whole entry): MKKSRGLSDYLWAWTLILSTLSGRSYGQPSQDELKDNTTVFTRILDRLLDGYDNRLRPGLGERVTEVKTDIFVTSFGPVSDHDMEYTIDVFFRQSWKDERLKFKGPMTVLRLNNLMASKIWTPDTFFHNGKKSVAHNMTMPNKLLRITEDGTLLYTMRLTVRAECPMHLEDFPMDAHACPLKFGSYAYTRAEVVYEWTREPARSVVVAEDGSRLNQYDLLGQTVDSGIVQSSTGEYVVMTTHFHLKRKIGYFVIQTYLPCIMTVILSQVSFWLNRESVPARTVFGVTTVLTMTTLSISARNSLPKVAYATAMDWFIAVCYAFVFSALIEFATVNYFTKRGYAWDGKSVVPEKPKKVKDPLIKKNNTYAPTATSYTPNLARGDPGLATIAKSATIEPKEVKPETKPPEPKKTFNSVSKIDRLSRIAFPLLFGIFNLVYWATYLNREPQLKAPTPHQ

A word on the AC50: it is the concentration at which the activity in the assay is half-maximal. A higher AC50 goes with activity only at high concentration. Regarding `COC(c1ccccc1)(c1ccccc1)[C@H](Oc1nc(C)cc(C)n1)C(=O)O` [AMBRISENTAN], the AC50 (in assay [1]; in assay [2]; in assay [3]; at Acetylcholinesterase; in assay [4]; in [5]) was more than 30 µM in each case.
Regarding `CC[C@H]1OC(=O)[C@H](C)[C@@H](O[C@H]2C[C@@](C)(OC)[C@@H](O)[C@H](C)O2)[C@H](C)[C@@H](O[C@@H]2O[C@H](C)C[C@H](N(C)C)[C@H]2O)[C@](C)(O)C[C@@H](C)CN(C)[C@H](C)[C@@H](O)[C@]1(C)O` [AZITHROMYCIN], the concentration at half-maximal activity (AC50) on Thromboxane A2 receptor was more than 30 µM; in [1], more than 30 µM; on Mu-type opioid receptor, more than 10 µM; on Histamine H2 receptor, more than 10 µM; in [6], more than 30 µM; in assay [7], more than 30 µM. Also, the AC50 in assay [2] is more than 30 µM; in [3], more than 30 µM; on Histamine H3 receptor, more than 10 µM; at Acetylcholinesterase, more than 30 µM; in [8], more than 10 µM; in [5], more than 30 µM.
`CN(C)CCn1nnnc1SCC1=C(C(=O)O)N2C(=O)[C@@H](NC(=O)Cc3csc(N)n3)[C@H]2SC1` [CEFOTIAM]: the concentration at half-maximal activity (AC50) (in assay [1]; in assay [2]; in assay [3]; at Acetylcholinesterase; in assay [4]; in [5]) was more than 30 µM in each case.
Regarding `CN1C(=O)CCS(=O)(=O)C1c1ccc(Cl)cc1` (stereo unspecified) [CHLORMEZANONE], the AC50 at Thromboxane A2 receptor is more than 10 µM; at Mu-type opioid receptor it was more than 30 µM; at Histamine H2 receptor, more than 30 µM; in [6] it was more than 10 µM; in [9], more than 30 µM; in assay [10] it was more than 10 µM. Further, the AC50 in assay [8] is more than 10 µM.
For the molecule `CN(C)CCN1C(=O)c2ccccc2N(C)c2ccccc21` [DIBENZEPIN], the AC50 was more than 30 µM in [2]; 22.5 µM in assay [3]; more than 30 µM on Acetylcholinesterase; more than 30 µM in assay [4]; more than 30 µM in [5].
`N[C@H](C(=O)O)[C@H](O)c1ccc(O)c(O)c1` [DROXIDOPA]: the AC50 was more than 30 µM in assay [2]; 10.4 µM in [3]; more than 30 µM at Acetylcholinesterase; more than 30 µM in assay [4]; more than 30 µM in [5].
In the case of `CN1C(C(=O)Nc2ccccn2)=C(O)c2sc(Cl)cc2S1(=O)=O` [LORNOXICAM], the AC50 is more than 30 µM at Thromboxane A2 receptor; more than 30 µM on Mu-type opioid receptor; more than 10 µM at Histamine H2 receptor; more than 10 µM in assay [6]; more than 30 µM in [7]; more than 10 µM in [9]. In addition, the concentration at half-maximal activity (AC50) on Histamine H3 receptor is more than 10 µM; in [10] it was more than 30 µM; in assay [8] it was more than 10 µM.
Turning to `Cc1cccc(Nc2ccccc2C(=O)O)c1C` [MEFENAMIC ACID], the concentration at half-maximal activity (AC50) on Thromboxane A2 receptor was more than 10 µM; in assay [1], more than 30 µM; at Mu-type opioid receptor it was more than 30 µM; on Histamine H2 receptor, more than 10 µM; in [6] it was more than 10 µM; in [2], more than 30 µM. Moreover, the AC50 is more than 30 µM in [3]; more than 10 µM on Histamine H3 receptor; more than 30 µM at Acetylcholinesterase; more than 10 µM in assay [8]; 0.0115 µM in [5].
Consider `COc1ccc(CC(C)(C)NC[C@H](O)c2cc(O)cc3c2OCC(=O)N3)cc1` [OLODATEROL], for which the AC50 was more than 30 µM at Mu-type opioid receptor; more than 30 µM in assay [7]; more than 30 µM in assay [9]; more than 30 µM at Histamine H3 receptor; 12.8 µM in [10]; 29 µM in assay [8].
Consider `C=C[C@H]1C[N@@]2CC[C@H]1C[C@H]2[C@H](O)c1ccnc2ccc(OC)cc12` [QUININE], for which the concentration at half-maximal activity (AC50) in assay [2] is more than 30 µM; on Acetylcholinesterase it was more than 30 µM; in assay [4] it was more than 30 µM; in [5], more than 10 µM.
Turning to `Cc1cn([C@H]2C=C[C@@H](CO)O2)c(=O)[nH]c1=O` [STAVUDINE], the AC50 on Thromboxane A2 receptor is more than 30 µM; in assay [1], more than 30 µM; at Mu-type opioid receptor, more than 30 µM; at Histamine H2 receptor, more than 10 µM; in assay [6] it was more than 10 µM; in assay [7], more than 30 µM. Further, the AC50 was more than 30 µM in assay [2]; more than 30 µM in [3]; more than 30 µM on Histamine H3 receptor; more than 30 µM on Acetylcholinesterase; more than 10 µM in [8]; more than 30 µM in assay [5].
Consider `Nc1ccn([C@H]2CC[C@@H](CO)O2)c(=O)n1` [ZALCITABINE], for which the concentration at half-maximal activity (AC50) at Thromboxane A2 receptor was more than 10 µM; at Mu-type opioid receptor, more than 30 µM; at Histamine H2 receptor, more than 10 µM; in [6], more than 10 µM; in [7], more than 30 µM; in assay [9] it was more than 10 µM. In addition, the half-maximal activity concentration (AC50) in assay [10] and in assay [8] was more than 10 µM throughout.
With `Cc1cn([C@H]2C[C@H](N=[N+]=[N-])[C@@H](CO)O2)c(=O)[nH]c1=O` [ZIDOVUDINE], the AC50 at Thromboxane A2 receptor was more than 30 µM; in assay [1], more than 30 µM; on Mu-type opioid receptor, more than 30 µM; at Histamine H2 receptor, more than 10 µM; in assay [6] it was more than 10 µM; in assay [7], more than 30 µM. Further, the half-maximal activity concentration (AC50) in [2] is more than 30 µM; in [3] it was more than 30 µM; on Histamine H3 receptor, more than 10 µM; on Acetylcholinesterase, more than 30 µM; in assay [8] it was more than 10 µM; in assay [5], more than 30 µM.
Consider `NS(=O)(=O)Cc1noc2ccccc12` [ZONISAMIDE], for which the AC50 at Thromboxane A2 receptor was more than 10 µM; at Mu-type opioid receptor, more than 30 µM; on Histamine H2 receptor, more than 10 µM; in [6], more than 10 µM; in assay [9], more than 10 µM; at Histamine H3 receptor, more than 10 µM. In addition, the half-maximal activity concentration (AC50) in assay [10] and in [8] was more than 10 µM throughout.

Values taken from ChEMBL document CHEMBL5291721, “A preclinical secondary pharmacology resource illuminates target-adverse drug reaction associations of marketed drugs” (Nat Commun, 2023).
